Assay results taken from paper PMC10011554, “BET inhibitor trotabresib in heavily pretreated patients with solid tumors and diffuse large B-cell lymphomas” (Nature Communications, 2023).

Assay: Adverse events, DLTs, MTD and RP2D in phase I study CC-90010-ST-001 (NCI CTCAE v4.03)
Assay type: in vivo
Description: The primary endpoints of the study were the safety and tolerability of trotabresib, as well as the MTD and/or RP2D of trotabresib. Safety was assessed using the National Cancer Institute Common Terminology Criteria for Adverse Events v4.03[53].
The decision to evaluate additional subjects within a dose cohort, a higher dose cohort, intermediate dose cohorts, smaller dose increments, alternate dosing schedules, or declare an MTD will also be determined by the SRC, based on their review of clinical and laboratory safety […]
7.2.4. Definition of a Subject Evaluable for DLT
After the first dose is administered in any cohort during dose escalation, subjects in each cohort […]
more than one subject per day will be enrolled in a given dose escalation cohort.
A subject evaluable for DLT is defined as one that: […]
without experiencing a DLT,
Subjects non-evaluable for DLT will be replaced. Additional subjects within any dose cohort may be enrolled at the discretion of the SRC. Intra-subject dose escalation will not be allowed during the DLT assessment period.
7.2.5. Definition of Maximum Tolerated Dose (MTD) […]
of MTD is described in Section 7.2.2.
A variable dose cohort (eg, less frequent dosing) may be evaluated to accurately determine the MTD at the discretion of the SRC.
7.2.6. Definition of Dose-Limiting Toxicity (DLT) […]
used as a guide for the grading of severity of adverse events. A DLT is defined as any of the following toxicities occurring within the DLT assessment unless the event can clearly be […]
Do se-limiting toxicities are described below:
• Hyperglycemia meeting any of the following criteria:
− Grade 3 or greater fasting hyperglycemia (> 250 mg/dL) lasting > 4 days despite optimal medical treatment
(1 picture or pasted object on this page, not shown here)
− Hyperglycemia associated with diabetic ketoacidosis or nonketotic hyperosmolar coma regardless of glucose level
− Hyperglycemia that necessitates dose reduction despite dose interruption and resolution to ≤ grade 1 hyperglycemia within two weeks as described in […]
• Any Grade 4 non-hematologic toxicity of any duration
• Any non-hematologic toxicity Grade ≥ 3 EXCEPT for:
− Grade 3 diarrhea, nausea, or vomiting of ≤ 3 days duration (with optimal medical […]
− Grade 3 rash of the acneiform, pustular or maculopapular type which resolves to […]
level with resumption of study drug at the same dose (with optimal medical […]
− Grade 3 fatigue which resolves to Grade ≤ 2 within 7 days of study drug […]
the same dose (with optimal medical management).
• Hematological toxicities as follows:
− Grade 4 neutropenia lasting > 7 days
− Grade 4 thrombocytopenia lasting > 7 days, Grade ≥ 3 thrombocytopenia with clinically significant bleeding
• Any AE, Grade ≥ 2 not specified or exempt above, unless clearly determined to be unrelated to the drug, necessitating dose-level reduction during Cycle 1.
Isolated laboratory changes without associated clinical signs or symptoms (eg, hypomagnesemia, hypermagnesemia, hypoalbuminemia, hypophosphatemia, lymphocyte count increased or decreased) may not be included in this definition. These findings will be discussed and reviewed […]
7.2.7. Criteria for Dose Escalation in the Next Cohort of Subjects
During Part A, the dose escalation criteria are described in Section 7.2.2.
7.2.8. Definition of Stopping Criteria
During Part A, the dose escalation stopping rules are in Section 7.2.2.
7.2.9. Permitted Study Drug Adjustments
Dose reductions are permitted in any cycle, including Cycle 1.
• Dose reductions that occur in Cycle 1 during dose escalation will constitute DLT as […]

[1] = part A (N = 69), 02 Dec 2019 cutoff
[2] = part A (n=69), as stated in protocol section 7.2.10.1
[3] = part A, 30 mg 3-days-on/11-days off, 02 Dec 2019 cutoff
[4] = part A, 45 mg 4-days-on/24-days-off, 02 Dec 2019 cutoff

Cn1cc(-c2cc(S(C)(=O)=O)ccc2OCC2CC2)c2ccccc2c1=O [trotabresib]
TEAE dysgeusia [1]: 29.0%
TEAE fatigue [1]: 24.6%
TEAE headache [1]: 10.1%
TEAE hyperglycemia [1]: 21.7%
TEAE increased ALT [1]: 13.0%
TEAE maculopapular rash [1]: 10.1%
TEAE nausea [1]: 40.6%
TEAE stomatitis [1]: 24.6%
TEAE thrombocytopenia [1]: 50.7%
TEAE vomiting [1]: 24.6%
serious TEAE anemia [1]: 2.9%
serious TEAE arthralgia [1]: 2.9%
serious TEAE cognitive disorder [1]: 4.3%
serious TEAE decreased platelet count [1]: 1.4%
serious TEAE diarrhea [1]: 2.9%
serious TEAE fatigue [1]: 2.9%
serious TEAE general physical health deterioration [1]: 2.9%
serious TEAE headache [1]: 4.3%
serious TEAE noncardiac chest pain [1]: 2.9%
serious TEAE thrombocytopenia [1]: 2.9%
subjects with a TEAE leading to death (all not related) [1]: 10.1%
subjects with at least one Grade 3 or 4 TEAE [1]: 58.0%
subjects with at least one serious TEAE [1]: 46.4%
subjects with at least one treatment-related Grade 3 or 4 TEAE [1]: 33.3%
subjects with at least one treatment-related TEAE [1]: 87.0%
subjects with at least one treatment-related serious TEAE [1]: 11.6%
treatment-related Grade 3 or 4 TEAE anemia [1]: 4.3%
treatment-related Grade 3 or 4 TEAE decreased platelet count [1]: 2.9%
treatment-related Grade 3 or 4 TEAE fatigue [1]: 2.9%
treatment-related Grade 3 or 4 TEAE hyponatremia [1]: 2.9%
treatment-related Grade 3 or 4 TEAE increased ALT [1]: 2.9%
treatment-related Grade 3 or 4 TEAE thrombocytopenia [1]: 13.0%
treatment-related TEAE anemia [1]: 11.6%
treatment-related TEAE asthenia [1]: 31.9%
treatment-related TEAE decreased appetite [1]: 17.4%
treatment-related TEAE dermatitis acneiform [1]: 13.0%
treatment-related TEAE diarrhea [1]: 39.1%
treatment-related TEAE dysgeusia [1]: 26.1%
treatment-related TEAE fatigue [1]: 21.7%
treatment-related TEAE hyperglycemia [1]: 11.6%
treatment-related TEAE nausea [1]: 39.1%
treatment-related TEAE stomatitis [1]: 23.2%
treatment-related TEAE thrombocytopenia [1]: 46.4%
treatment-related TEAE vomiting [1]: 17.4%
treatment-related serious TEAE anemia [1]: 2.9%
treatment-related serious TEAE decreased platelet count [1]: 1.4%
treatment-related serious TEAE diarrhea [1]: 2.9%
treatment-related serious TEAE fatigue [1]: 2.9%
treatment-related serious TEAE thrombocytopenia [1]: 2.9%
Grade 3 or 4 TEAE decreased platelet count [2]: 4.3%
Grade 3 or 4 TEAE thrombocytopenia [2]: 10.1%
TEAE decreased platelet count [2]: 18.8%
subjects with at least one Grade 3 or 4 TEAE [2]: 49.3%
subjects with at least one TEAE Grade 3 or 4 related to study drug [3]: 33.3%
subjects with at least one TEAE related to study drug [3]: 66.7%
subjects with at least one TEAE Grade 3 or 4 related to study drug [4]: 28.6%
subjects with at least one TEAE related to study drug [4]: 85.7%
TRAE: ALT increased (part A, any grade): 7.25%
TRAE: Anemia (part A, any grade): 11.59%
TRAE: Any TRAE (part A, any grade): 86.96%
TRAE: Asthenia (part A, any grade): 31.88%
TRAE: Decreased appetite (part A, any grade): 17.39%
TRAE: Dehydration (part A, any grade): 0%
TRAE: Dermatitis acneiform (part A, any grade): 13.04%
TRAE: Diarrhoea (part A, any grade): 39.13%
TRAE: Dysgeusia (part A, any grade): 26.09%
TRAE: Fatigue (part A, any grade): 21.74%
TRAE: Hyperglycemia (part A, any grade): 11.59%
TRAE: Hypertension (part A, any grade): 1.45%
TRAE: Hyponatremia (part A, any grade): 4.35%
TRAE: Hypophosphatemia (part A, any grade): 2.9%
TRAE: Nausea (part A, any grade): 39.13%
TRAE: Neutropenia (part A, any grade): 7.25%
TRAE: Platelet count decreased (part A, any grade): 4.35%
TRAE: Stomatitis (part A, any grade): 23.19%
TRAE: Thrombocytopenia (part A, any grade): 46.38%
TRAE: Vomiting (part A, any grade): 17.39%
TRAE: ALT increased (part A, grade 3): 1.45%
TRAE: Anemia (part A, grade 3): 4.35%
TRAE: Any TRAE (part A, grade 3): 26.09%
TRAE: Asthenia (part A, grade 3): 1.45%
TRAE: Decreased appetite (part A, grade 3): 0%
TRAE: Dehydration (part A, grade 3): 0%
TRAE: Dermatitis acneiform (part A, grade 3): 0%
TRAE: Diarrhoea (part A, grade 3): 1.45%
TRAE: Dysgeusia (part A, grade 3): 0%
TRAE: Fatigue (part A, grade 3): 2.9%
